Measurements reported in ChEMBL document CHEMBL5131475, “Metallo-β-lactamases inhibitor fisetin attenuates meropenem resistance in NDM-1-producing Escherichia coli” (Eur J Med Chem, 2022).
Values after ≈ are worked out from the molar mass of the structure shown. Active and inactive are the calls of the source. The rule behind the calls is not given here.

Tests used:
Escherichia coli [1] = assay: Antibacterial activity against pET28a-NDM-1 positive Escherichia coli BL21(DE3) isolates assessed as kanamycin MIC incubated for 18 to 24 hrs by CLSI based broth microdilution method; assay type: functional; conditions: time 18-24 hrs
Escherichia coli [2] = assay: Antibacterial activity against pET28a-NDM-1 positive Escherichia coli BL21(DE3) isolates assessed as tetracycline MIC incubated for 18 to 24 hrs by CLSI based broth microdilution method; assay type: functional; conditions: time 18-24 hrs
Escherichia coli [3] = assay: Antibacterial activity against pET28a-NDM-1 positive Escherichia coli BL21(DE3) isolates assessed as florfenicol MIC incubated for 18 to 24 hrs by CLSI based broth microdilution method; assay type: functional; conditions: time 18-24 hrs
Escherichia coli [4] = assay: Antibacterial activity against pET28a-NDM-1 positive Escherichia coli BL21(DE3) isolates assessed as cefotaxime MIC incubated for 18 to 24 hrs by CLSI based broth microdilution method; assay type: functional; conditions: time 18-24 hrs
Escherichia coli [5] = assay: Antibacterial activity against pET28a-NDM-1 positive Escherichia coli BL21(DE3) isolates assessed as imipenem MIC incubated for 18 to 24 hrs by CLSI based broth microdilution method; assay type: functional; conditions: time 18-24 hrs
Escherichia coli [6] = assay: Antibacterial activity against pET28a-NDM-1 positive Escherichia coli BL21(DE3) isolates assessed as doxycycline MIC incubated for 18 to 24 hrs by CLSI based broth microdilution method; assay type: functional; conditions: time 18-24 hrs
Escherichia coli [7] = assay: Antibacterial activity against NDM-1 positive Escherichia coli ZC-YN3 isolates assessed as meropenem MIC incubated for 18 to 24 hrs by CLSI based broth microdilution method; assay type: functional; conditions: time 18-24 hrs
Escherichia coli [8] = assay: Antibacterial activity against NDM-1 positive Escherichia coli ZC-YN3 isolates assessed as ampicillin MIC incubated for 18 to 24 hrs by CLSI based broth microdilution method; assay type: functional; conditions: time 18-24 hrs
Escherichia coli [9] = assay: Antibacterial activity against NDM-1 positive Escherichia coli ZC-YN3 isolates assessed as kanamycin MIC incubated for 18 to 24 hrs by CLSI based broth microdilution method; assay type: functional; conditions: time 18-24 hrs
Escherichia coli [10] = assay: Antibacterial activity against NDM-1 positive Escherichia coli ZC-YN3 isolates assessed as florfenicol MIC incubated for 18 to 24 hrs by CLSI based broth microdilution method; assay type: functional; conditions: time 18-24 hrs
Escherichia coli [11] = assay: Antibacterial activity against NDM-1 positive Escherichia coli ZC-YN3 isolates assessed as vancomycin MIC incubated for 18 to 24 hrs by CLSI based broth microdilution method; assay type: functional; conditions: time 18-24 hrs
Escherichia coli [12] = assay: Antibacterial activity against NDM-1 positive Escherichia coli ZC-YN3 isolates assessed as ciprofloxacin MIC incubated for 18 to 24 hrs by CLSI based broth microdilution method; assay type: functional; conditions: time 18-24 hrs
Escherichia coli [13] = assay: Antibacterial activity against NDM-1 positive Escherichia coli ZC-YN3 isolates assessed as lincomycin MIC incubated for 18 to 24 hrs by CLSI based broth microdilution method; assay type: functional; conditions: time 18-24 hrs
Escherichia coli [14] = assay: Antibacterial activity against NDM-1 positive Escherichia coli ZC-YN3 isolates assessed as colistin MIC incubated for 18 to 24 hrs by CLSI based broth microdilution method; assay type: functional; conditions: time 18-24 hrs
Escherichia coli [15] = assay: Antibacterial activity against NDM-1 negative Escherichia coli BL21(DE3) (pET28a) isolates assessed as meropenem MIC incubated for 18 to 24 hrs by CLSI based broth microdilution method; assay type: functional; conditions: time 18-24 hrs
Escherichia coli [16] = assay: Antibacterial activity against NDM-1 negative Escherichia coli ATCC25922 isolates assessed as meropenem MIC incubated for 18 to 24 hrs by CLSI based broth microdilution method; assay type: functional; conditions: time 18-24 hrs
Escherichia coli [17] = assay: Synergistic antibacterial activity against pET28a NDM-1 positive Escherichia coli BL21(DE3) isolates assessed as fractional Inhibitory concentration index incubated for 18 to 24 hrs in presence of tetracycline by CLSI based broth microdilution method; assay type: functional; conditions: time 18-24 hrs
Escherichia coli [18] = assay: Synergistic antibacterial activity against pET28a NDM-1 positive Escherichia coli BL21(DE3) isolates assessed as fractional Inhibitory concentration index incubated for 18 to 24 hrs in presence of ciprofloxacin by CLSI based broth microdilution method; assay type: functional; conditions: time 18-24 hrs
Escherichia coli [19] = assay: Synergistic antibacterial activity against pET28a NDM-1 positive Escherichia coli BL21(DE3) isolates assessed as fractional Inhibitory concentration index incubated for 18 to 24 hrs in presence of spectinomycin by CLSI based broth microdilution method; assay type: functional; conditions: time 18-24 hrs
Escherichia coli [20] = assay: Synergistic antibacterial activity against pET28a NDM-1 positive Escherichia coli BL21(DE3) isolates assessed as fractional Inhibitory concentration index incubated for 18 to 24 hrs in presence of rifampicin by CLSI based broth microdilution method; assay type: functional; conditions: time 18-24 hrs
Escherichia coli [21] = assay: Synergistic antibacterial activity against NDM-1 positive Escherichia coli ZC-YN3 isolates assessed as fractional Inhibitory concentration index incubated for 18 to 24 hrs in presence of meropenem by CLSI based broth microdilution method; assay type: functional; conditions: time 18-24 hrs
Escherichia coli [22] = assay: Synergistic antibacterial activity against NDM-1 positive Escherichia coli ZC-YN3 isolates assessed as fractional Inhibitory concentration index incubated for 18 to 24 hrs in presence of tetracycline by CLSI based broth microdilution method; assay type: functional; conditions: time 18-24 hrs
Escherichia coli [23] = assay: Synergistic antibacterial activity against NDM-1 positive Escherichia coli ZC-YN3 isolates assessed as fractional Inhibitory concentration index incubated for 18 to 24 hrs in presence of vancomycin by CLSI based broth microdilution method; assay type: functional; conditions: time 18-24 hrs
Escherichia coli [24] = assay: Synergistic antibacterial activity against NDM-1 positive Escherichia coli ZC-YN3 isolates assessed as fractional Inhibitory concentration index incubated for 18 to 24 hrs in presence of spectinomycin by CLSI based broth microdilution method; assay type: functional; conditions: time 18-24 hrs
Escherichia coli [25] = assay: Synergistic antibacterial activity against NDM-1 positive Escherichia coli ZC-YN3 isolates assessed as fractional Inhibitory concentration index incubated for 18 to 24 hrs in presence of imipenem by CLSI based broth microdilution method; assay type: functional; conditions: time 18-24 hrs
Escherichia coli [26] = assay: Synergistic antibacterial activity against NDM-1 positive Escherichia coli ZC-YN3 isolates assessed as fractional Inhibitory concentration index incubated for 18 to 24 hrs in presence of doxycycline by CLSI based broth microdilution method; assay type: functional; conditions: time 18-24 hrs
[27] = Inhibition of metallo-beta-lactamase VIM-1 (unknown origin) using nitrocefin as substrate preincubated for 15 min followed by substrate addition and measured after 15 min by microplate reader assay; design: species or system Bacteria
[28] = Inhibition of class A […]beta-lactamase KPC-2 (unknown origin) using nitrocefin as substrate preincubated for 15 min followed by substrate addition and measured after 15 min by microplate reader assay; design: species or system Bacteria
[29] = Inhibition of metallo-beta-lactamase IMP-1 (unknown origin) using nitrocefin as substrate preincubated for 15 min followed by substrate addition and measured after 15 min by microplate reader assay; design: species or system Bacteria
Escherichia coli [30] = assay: Bactericidal activity against pET28a-NDM-1 producing Escherichia coli BL21(DE3) at 32 ug/ml measured within 3 hrs in presence of meropenem by time kill curve assay; assay type: functional, organism-based; conditions: dose 32.0 µg/ml
Mus musculus = assay: Antibacterial activity in BALB/c mouse infected with NDM-1 positive Escherichia coli ZJ487 assessed as increase in survival rate at 10 mg/kg, sc administered every 12 hrs and measured after 96 hrs post infection; assay type: functional
Bacteria [31] = assay: Binding affinity to NDM-1 V73A mutant (unknown origin) assessed as binding free energy by fluorescence quenching method
Bacteria [32] = assay: Inhibition of NDM-1 V73A mutant activity (unknown origin) in presence of zinc ion
Bacteria [33] = test system: Bacteria
Description: Binding affinity to NDM-1 M248A mutant (unknown origin) assessed as binding constant by fluorescence quenching method

Bacteria [34] = test system: Bacteria; remark: listed apart in the source
Description: Binding affinity to NDM-1 H250A mutant (unknown origin) assessed as binding constant by fluorescence quenching method

Compound `O=c1c(O)c(-c2ccc(O)c(O)c2)oc2cc(O)ccc12` [FISETIN] has an MIC (Escherichia coli [1]) of 512 µg/mL, an MIC (Escherichia coli [2]) of 427 µg/mL and an MIC (Escherichia coli [3]) of 683 µg/mL. It also gave an MIC (Escherichia coli [4]) of 512 µg/mL, an MIC (Escherichia coli [5]) of 9.33 µg/mL and an MIC (Escherichia coli [6]) of 107 µg/mL. The MIC (Escherichia coli [7]) was 4 µg/mL, the MIC (Escherichia coli [8]) was 853 µg/mL and the MIC (Escherichia coli [9]) was 853 µg/mL. The MIC (Escherichia coli [10]) was 341 µg/mL, the MIC (Escherichia coli [11]) was 427 µg/mL and the MIC (Escherichia coli [12]) was 6.67 µg/mL. For the same compound, the MIC (Escherichia coli [13]) was 1020 µg/mL, the MIC (Escherichia coli [14]) was 1.33 µg/mL and the MIC (Escherichia coli [15]) was 0.01 µg/mL. The MIC (Escherichia coli [16]) was 0.01 µg/mL, the “fractional inhibitory concentration index (FICI)” value (Escherichia coli [17]) was 0.96 and the “fractional inhibitory concentration index (FICI)” value (Escherichia coli [18]) was 0.96. The “fractional inhibitory concentration index (FICI)” value (Escherichia coli [19]) was 0.96, the “fractional inhibitory concentration index (FICI)” value (Escherichia coli [20]) was 0.96 and the “fractional inhibitory concentration index (FICI)” value (Escherichia coli [21]) was 0.31. For the same compound, the “fractional inhibitory concentration index (FICI)” value (Escherichia coli [22]) was 1.13, the “fractional inhibitory concentration index (FICI)” value (Escherichia coli [23]) was 0.96 and the “fractional inhibitory concentration index (FICI)” value (Escherichia coli [24]) was 1.13. The “fractional inhibitory concentration index (FICI)” value (Escherichia coli [25]) was 0.38, the “fractional inhibitory concentration index (FICI)” value (Escherichia coli [26]) was 0.96 and the IC50 [27] was 11.37 µg/mL (≈ 39.7 µM). The IC50 [28] was 2.63 µg/mL (≈ 9.19 µM), the IC50 [29] was 56.13 µg/mL (≈ 196 µM) and the Activity (Escherichia coli [30]) was “Active”. The Activity (Mus musculus) was 20%, the Activity (Bacteria [31]) was -18.7 kcal/mol and the inhibition (Bacteria [32]) was “Active”. The Ka (Bacteria [33]) was 7.39 10^5L/mol and the Ka (Bacteria [34]) was 6.95 10^5L/mol.
